ChEMBL document CHEMBL1139057, “Rotenoids and flavonoids with anti-invasion of HT1080, anti-proliferation of U937, and differentiation-inducing activity in HL-60 from Erycibe expansa” (Bioorg Med Chem, 2007)
One block for each molecule: values may come before it. Activity calls are given as the source filed them. The rule behind the calls is not given here.

Legend:
U-937 [1] = experiment: Antiproliferative activity against human U937 cells after 48 hrs by WST-8 assay; format: functional, cell-based; conditions: U-937, 48 h
U-937 [2] = experiment: Antiproliferative activity against human U937 cells after 72 hrs by WST-8 assay; format: functional, cell-based; conditions: U-937, 72 h
U-937 [3] = experiment: Antiproliferative activity against human U937 cells after 24 hrs by WST-8 assay; format: functional, cell-based; conditions: U-937, 24 h
HT-1080 [4] = experiment: Inhibition of invasion of human HT1080 cells at 30 uM after 24 hrs; format: functional; conditions: HT-1080, 24 h
HT-1080 [5] = experiment: Inhibition of proMMP9 production in human HT1080 cells by gelatin zymography analysis; format: functional, cell-based
HT-1080 [6] = experiment: Inhibition of invasion of human HT1080 cells at 3 uM after 24 hrs; format: functional; conditions: HT-1080, 24 h
HT-1080 [7] = experiment: Inhibition of invasion of human HT1080 cells at 10 uM after 24 hrs; format: functional; conditions: HT-1080, 24 h
HT-1080 [8] = experiment: Antiproliferative activity against human HT1080 cells at 1 uM after 24 hrs by calcein-AM assay; format: functional; conditions: HT-1080, 24 h
HT-1080 [9] = experiment: Antiproliferative activity against human HT1080 cells at 1 uM after 24 hrs by MTT assay; format: functional; conditions: HT-1080, 24 h
HT-1080 [10] = experiment: Antiproliferative activity against human HT1080 cells at 10 uM after 24 hrs by calcein-AM assay; format: functional; conditions: HT-1080, 24 h
HT-1080 [11] = experiment: Antiproliferative activity against human HT1080 cells at 10 uM after 24 hrs by MTT assay; format: functional; conditions: HT-1080, 24 h
HT-1080 [12] = experiment: Inhibition of proMMP2 production in human HT1080 cells by gelatin zymography analysis; format: functional, cell-based
HT-1080 [13] = experiment: Antiproliferative activity against human HT1080 cells at 1 uM after 72 hrs by MTT assay; format: functional; conditions: HT-1080, 72 h
HT-1080 [14] = experiment: Antiproliferative activity against human HT1080 cells at 30 uM after 72 hrs by calcein-AM assay; format: functional; conditions: HT-1080, 72 h
HT-1080 [15] = experiment: Antiproliferative activity against human HT1080 cells at 1 uM after 48 hrs by MTT assay; format: functional; conditions: HT-1080, 48 h
HT-1080 [16] = experiment: Antiproliferative activity against human HT1080 cells at 1 uM after 72 hrs by calcein-AM assay; format: functional; conditions: HT-1080, 72 h
HT-1080 [17] = experiment: Antiproliferative activity against human HT1080 cells at 10 uM after 48 hrs by calcein-AM assay; format: functional; conditions: HT-1080, 48 h
HT-1080 [18] = experiment: Antiproliferative activity against human HT1080 cells at 10 uM after 72 hrs by calcein-AM assay; format: functional; conditions: HT-1080, 72 h
HT-1080 [19] = experiment: Antiproliferative activity against human HT1080 cells at 3 uM after 24 hrs by MTT assay; format: functional; conditions: HT-1080, 24 h
HT-1080 [20] = experiment: Antiproliferative activity against human HT1080 cells at 30 uM after 72 hrs by MTT assay; format: functional; conditions: HT-1080, 72 h
HT-1080 [21] = experiment: Antiproliferative activity against human HT1080 cells at 3 uM after 72 hrs by calcein-AM assay; format: functional; conditions: HT-1080, 72 h
HT-1080 [22] = experiment: Antiproliferative activity against human HT1080 cells at 3 uM after 24 hrs by calcein-AM assay; format: functional; conditions: HT-1080, 24 h
HT-1080 [23] = experiment: Antiproliferative activity against human HT1080 cells at 3 uM after 48 hrs by MTT assay; format: functional; conditions: HT-1080, 48 h
HT-1080 [24] = experiment: Antiproliferative activity against human HT1080 cells at 10 uM after 48 hrs by MTT assay; format: functional; conditions: HT-1080, 48 h
HT-1080 [25] = experiment: Antiproliferative activity against human HT1080 cells at 30 uM after 24 hrs by MTT assay; format: functional; conditions: HT-1080, 24 h
HT-1080 [26] = experiment: Antiproliferative activity against human HT1080 cells at 30 uM after 48 hrs by MTT assay; format: functional; conditions: HT-1080, 48 h
HT-1080 [27] = experiment: Antiproliferative activity against human HT1080 cells at 3 uM after 72 hrs by MTT assay; format: functional; conditions: HT-1080, 72 h
HT-1080 [28] = experiment: Inhibition of invasion of human HT1080 cells at 1 uM after 24 hrs; format: functional; conditions: HT-1080, 24 h
HT-1080 [29] = experiment: Antiproliferative activity against human HT1080 cells at 10 uM after 72 hrs by MTT assay; format: functional; conditions: HT-1080, 72 h
HT-1080 [30] = experiment: Antiproliferative activity against human HT1080 cells at 30 uM after 48 hrs by calcein-AM assay; format: functional; conditions: HT-1080, 48 h
HT-1080 [31] = experiment: Antiproliferative activity against human HT1080 cells at 3 uM after 48 hrs by calcein-AM assay; format: functional; conditions: HT-1080, 48 h
HT-1080 [32] = experiment: Antiproliferative activity against human HT1080 cells at 1 uM after 48 hrs by calcein-AM assay; format: functional; conditions: HT-1080, 48 h
HT-1080 [33] = experiment: Antiproliferative activity against human HT1080 cells at 30 uM after 24 hrs by calcein-AM assay; format: functional; conditions: HT-1080, 24 h

Compound: O=c1cc(-c2ccc(O)c(O)c2)oc2cc(O)cc(O)c12 [LUTEOLIN]
- IC50 (U-937 [1]): 28 µM
- IC50 (U-937 [2]): 20 µM
- IC50 (U-937 [3]): 36 µM

Compound: C=C(C)[C@H]1Cc2c(ccc3c2O[C@@H]2COc4cc(OC)c(OC)cc4[C@]2(O)C3=O)O1 [ROTENOLONE]
- inhibition at 30 µM (HT-1080 [4]): 54.6%
- Activity (HT-1080 [5]): Active
- inhibition at 3 µM (HT-1080 [6]): 30.6%
- inhibition at 10 µM (HT-1080 [7]): 64.9%
- inhibition at 1 µM (HT-1080 [8]): 17.2%
- inhibition at 1 µM (HT-1080 [9]): -2%
- IC50 (U-937 [1]): 0.07 µM
- inhibition at 10 µM (HT-1080 [10]): 24.4%
- inhibition at 10 µM (HT-1080 [11]): 2.4%
- Activity (HT-1080 [12]): Active
- inhibition at 1 µM (HT-1080 [13]): 98.3%
- inhibition at 30 µM (HT-1080 [14]): 95%
- inhibition at 1 µM (HT-1080 [15]): 95.8%
- IC50 (U-937 [2]): 0.09 µM
- inhibition at 1 µM (HT-1080 [16]): 97.3%
- inhibition at 10 µM (HT-1080 [17]): 47.6%
- inhibition at 10 µM (HT-1080 [18]): 94.9%
- inhibition at 3 µM (HT-1080 [19]): 0.8%
- inhibition at 30 µM (HT-1080 [20]): 98.5%
- inhibition at 3 µM (HT-1080 [21]): 97.1%
- inhibition at 3 µM (HT-1080 [22]): 21.8%
- inhibition at 3 µM (HT-1080 [23]): 96.9%
- inhibition at 10 µM (HT-1080 [24]): 96.4%
- inhibition at 30 µM (HT-1080 [25]): 5.5%
- inhibition at 30 µM (HT-1080 [26]): 96%
- inhibition at 3 µM (HT-1080 [27]): 98.7%
- inhibition at 1 µM (HT-1080 [28]): 3.3%
- inhibition at 10 µM (HT-1080 [29]): 98.3%
- inhibition at 30 µM (HT-1080 [30]): 53.6%
- inhibition at 3 µM (HT-1080 [31]): 50.6%
- inhibition at 1 µM (HT-1080 [32]): 52.2%
- inhibition at 30 µM (HT-1080 [33]): 29.2%
- IC50 (U-937 [3]): 3.6 µM

Compound: CC[C@@]1(O)C(=O)OCc2c1cc1n(c2=O)Cc2cc3ccccc3nc2-1 [CAMPTOTHECIN]
- IC50 (U-937 [1]): 0.032 µM
- IC50 (U-937 [2]): 0.015 µM
- IC50 (U-937 [3]): 0.68 µM

Compound: COc1cc(O)c(-c2coc3cc(O)ccc3c2=O)cc1OC
- IC50 (U-937 [1]): 72 µM
- IC50 (U-937 [2]): 48 µM
- IC50 (U-937 [3]): > 100 µM

Compound: COc1cc(OC)c2c(c1)O[C@H](c1ccc(O)cc1)CC2
- IC50 (U-937 [1]): 40 µM
- IC50 (U-937 [2]): 10 µM
- IC50 (U-937 [3]): 39 µM

Compound: CC1(C)C=Cc2c(cc3occ(-c4ccc(O)cc4)c(=O)c3c2O)O1 [ALPINUMISOFLAVONE]
- IC50 (U-937 [1]): 32 µM
- IC50 (U-937 [2]): 28 µM
- IC50 (U-937 [3]): 35 µM

Other lines, results leading:

- IC50 (U-937 [1]): > 100 µM
- IC50 (U-937 [2]): > 100 µM
- IC50 (U-937 [3]): > 100 µM
Compound: COc1ccc([C@@H]2CCc3c(OC)cc(OC)cc3O2)c(OC)c1 [ERYCIBENIN F]

- IC50 (U-937 [1]): > 100 µM
- IC50 (U-937 [2]): > 100 µM
- IC50 (U-937 [3]): > 100 µM
Compound: COc1ccc2c(c1)OC[C@@]1(OC)c3cc4c(cc3O[C@@H]21)OCO4 [ERYCIBENIN C]

- IC50 (U-937 [1]): 48 µM
- IC50 (U-937 [2]): 43 µM
- IC50 (U-937 [3]): 49 µM
Compound: COc1ccc(-c2coc3cc(O)ccc3c2=O)cc1O [CALYCOSIN]

- IC50 (U-937 [1]): > 100 µM
- IC50 (U-937 [2]): > 100 µM
- IC50 (U-937 [3]): > 100 µM
Compound: O=C1C[C@@H](c2ccc(O)c(O)c2)Oc2cc(O)cc(O)c21 [ERIODICTYOL]

- IC50 (U-937 [1]): > 100 µM
- IC50 (U-937 [2]): > 100 µM
- IC50 (U-937 [3]): 73 µM
Compound: O=c1c(-c2ccc(O)c(O)c2)coc2cc(O)cc(O)c12 [OROBOL]

- IC50 (U-937 [1]): > 100 µM
- IC50 (U-937 [2]): > 100 µM
- IC50 (U-937 [3]): > 100 µM
Compound: COc1ccc2c(c1)OC[C@H]1c3cc4c(cc3O[C@@H]21)OCO4 [PTEROCARPIN]

- IC50 (U-937 [1]): > 100 µM
- IC50 (U-937 [2]): > 100 µM
- IC50 (U-937 [3]): > 100 µM
Compound: COc1cc2c(cc1OC)[C@@H]1COc3cc(O)ccc3[C@@H]1O2 [SECUNDIFLOROL I]

- IC50 (U-937 [1]): 25 µM
- IC50 (U-937 [2]): 21 µM
- IC50 (U-937 [3]): 46 µM
Compound: CC(C)(O)[C@@H](O)Cc1c(O)cc2occ(-c3ccc(O)cc3)c(=O)c2c1O [ERYCIBENIN A]
